# According to US7951772B2, “Tumor-activated prodrug compounds and treatment” (La Region Wallonne, priority 1994, dated 2011):
# Read-outs that look alike come from different tables or passages of the source.
# How the values were obtained:
# [1] = system: MCF7/6 human mammary carcinoma cells; experiment: Cytotoxicity with respect to MCF7/6 tumor cells (72 h, Bradford protein)
# Experimental: (§7) After 72 hours, the cells are incubated for 48 hours in the absence of anthracycline, and the cytotoxicity is determined by measuring the cellular proteins by Bradford's technique. […] The experimental points are adjusted to a sigmoid curve which enables the point of inflection, corresponding to the dose at which half of the cells survive (IC50), to be calculated.
# (§8) After 72 hours, the cells are incubated for 48 hours in the absence of the anthracycline, and the cytotoxicity is determined by measuring the cellular proteins by Bradford's technique. […] The experimental points are adjusted to a sigmoid curve which enables the point of inflection, corresponding to the dose at which half of the cells survive (IC50), to be calculated.
# [2] = system: MCF7/6 human mammary carcinoma cells; experiment: Accumulation in MCF7/6 tumor cells (HPLC of cell extracts)
# Experimental: (§9) After various times, the accumulation of the prodrugs and of their fluorescent metabolites were determined by HPLC after extraction of the products at basic pH according to a method developed in the laboratory. Accumulations, expressed in μg/mg of cellular proteins, were compared with those of DNR and of DOX as well as with those of L-Leu-DNR and L-Leu-DOX. The metabolites were identified by determining the retention times of reference products synthesized in the laboratory.
# (§10) After various times, the accumulation of the prodrugs and of their fluorescent metabolites was determined by HPLC after extraction of the products at basic pH according to a method developed in the laboratory. Accumulations, expressed in μg/mg of cellular proteins, were compared with those of DOX and of L-Leu-DOX. The metabolites were identified by determining the retention times of reference products synthesized in the laboratory.
# female NMRI mice [3] = experiment: In vivo acute toxicity, intraperitoneal route, 5 consecutive days; design: species or system mouse; conditions: i.p. on 5 consecutive days
# Experimental: (§1) In the in vivo study of the acute toxicity of a medicinal product, determination of the median lethal dose (lethal dose for 50% of the animals or LD50) occupies an important place. […] The LD50 is a simple test in which increasing amounts of the test product are administered intravenously (i.v.) in a single injection and intraperitoneally (i.p.) in 5 injections, one injection daily for 5 consecutive days. The mortality of the animals is monitored as a function of time. At the end of the observation period, usually 30 days, the value of the LD50 is obtained by linear regression of the percentage mortality (on a probit scale) as a function of the logarithm of the dose administered (O. K. Chan and A. W. Hayes, Principles and methods for acute toxicity and eye irritancy, in Principles and methods of toxicology, Second edition. Ed. by A. W. Hayes, Raven Press, New York, USA (1989), pp. 169-220; D. Deprez-De Campeneere and A. Trouet. DNA-Anthracycline Complexes. I. Toxicity in mice and chemotherapeutic activity against L1210 Leukaemia off Daunorubicin-DNA and Adriamycin-DNA, Eur. J. Cancer, 16 (1980), pp. 981-986; H. E. Skipper, L. H. Schmidt, A. Goldin and J. M. Venditti. A manual on quantitative drug evaluation in experimental tumor systems, Cancer Chemother. Rep. 17 (1.962), pp. 1-178).
# (§2) The acute toxicity of these two drugs was studied via the i.v. and i.p. routes on a single strain of mouse. Female NMRI mice (nonconsanguineous SPF-Han, approximately 5 weeks old and of mean weight 14.6 grams, supplied by IFFA-CREDO Belgium) remained in quarantine for one week.
# (§3) Injections were performed systematically in the morning (single injection into the caudal vein for the i.v. route and injections on 5 consecutive days into the peritoneum for the i.p. route), using 1.0 ml syringes and sterile 30 G (i.v.) and 27 G (i.p) needles. All handling of animals was performed with gloves, and maintenance of the animals was performed systematically every week.
# (§4) DNR was injected i.v. at doses of 10, 15, 20, 25, 30 and 35 mg/kg and i.p. at doses of 2.0; 2.5; 3.0 and 3.5 mg/kg.
# (§5) The concentrations of the solutions were verified by spectrophotometry.
# (§6) From the day of injection (DO) onwards, the mice were monitored clinically, with a daily record of dead mice. The weight of the mice was measured almost every day. The observation period was extended beyond one month so that the signs of late toxicity could be spotted more readily. At the end of the study, the surviving mice were sacrificed, according to the standards pertaining to animal experiments (D. B. McGregor. Ethics in experiments on animals, in Experiments in toxicology, First edition. Ed. by D. Anderson and D. M. Conning. The Royal Society of Chemistry and The Universities Press. Belfast, Ireland (1988), pp. 512-522).
# MRC5 fibroblast cells [4] = experiment: Cytotoxicity with respect to MRC5 normal cells (72 h, Bradford protein)
# Experimental: as §7, §8
# female NMRI mice [5] = experiment: In vivo acute toxicity, intravenous route; design: species or system mouse
# Experimental: as §1, §2, §3, §4, §5, §6
# MRC5 fibroblast cells [6] = experiment: Accumulation in MRC5 normal fibroblast cells (HPLC of cell extracts); conditions: MRC5 cells; for Accumulation after 6 h, DOX / Accumulation after 6 h, Leu-DOX: 10 μg eq. DOX/ml
# Experimental: At various times, the accumulation of the prodrugs and of their fluorescent metabolites was determined by HPLC after extraction of the products at basic pH according to a method developed in the laboratory. Accumulations, expressed in μg/mg of cellular proteins, were compared with those of DNR and of L-Leu-DNR. The metabolites were identified by determining the retention times of reference products synthesized in the laboratory.
# as §10
# [7] = system: conditioned medium from MCF7/6 mammary carcinoma cells; experiment: Degradation in conditioned medium from MCF7/6 mammary carcinoma cells (HPLC)
# [8] = system: conditioned medium from HepG2 hepatocarcinoma cells; experiment: Degradation in conditioned medium from HepG2 hepatocarcinoma cells; conditions: β-Ala-Leu-Ala-Leu-DNR incubated at 37 C for 2 hours in HepG2 conditioned medium
# [9] = system: MCF7/6 human mammary carcinoma cells
# Experimental: as §7, §8
# [10] = system: conditioned medium from HT29 colon carcinoma cells
# MRC5 fibroblast cells [11] = system: MRC5 fibroblast cells
# Experimental: as §7, §8
# [12] = system: conditioned medium from HepG2 hepatocarcinoma cells
# [13] = system: MCF7/6 human mammary carcinoma cells; remark: listed apart in the source
# Experimental: as §9, §10
# [14] = system: conditioned medium from MCF7/6 mammary carcinoma cells
# [15] = β-Ala-Leu-Ala-Leu-DOX incubated at 37 C in MCF7/6 conditioned medium concentrated 20 times, share of each species
smiles,measurement,setting,value
"COc1cccc2c1C(=O)c1c(O)c3c(c(O)c1C2=O)C[C@@](O)(C(C)=O)C[C@@H]3O[C@H]1C[C@H](N)[C@H](O)[C@H](C)O1 [DNR, daunorubicin]",IC50,"[1]; Homo sapiens, MCF7/6",0.09 ± 0.004 µg/mL
same,maximum accumulation,"[2]; MCF7/6 cells, 10 μg/ml, after 6 hours of incubation",~15 μg/mg of cellular proteins
same,"Intracellular concentration, Starting material","[2]; MCF7/6 cells, 6 hours of incubation, 10 μg eq. DNR/ml",14.9 μg/mg cellular proteins
same,ratio of the intracellular DNR levels (MCF7/6 to MRC5),[2]; cells incubated in the presence of the compound,0.19
same,day on which no mouse is surviving,female NMRI mice [3]; 2.0 mg/kg,29 days
same,mice dead out of 7 at first mortality,"female NMRI mice [3]; 2.0 mg/kg, day 11",1
same,mice surviving on day 43,female NMRI mice [3]; 2.5 mg/kg,one
same,mice dead out of 7 at first mortality,"female NMRI mice [3]; 2.5 mg/kg, day 11",2
same,day on which no mouse is surviving,female NMRI mice [3]; 3.0 mg/kg,19 days
same,mice dead out of 7 at first mortality,"female NMRI mice [3]; 3.0 mg/kg, day 9",2
same,day on which no mouse is surviving,female NMRI mice [3]; 3.5 mg/kg,12 days
same,mice dead out of 7 at first mortality,"female NMRI mice [3]; 3.5 mg/kg, day 7",1
same,mortality from day,female NMRI mice [3]; dose of 2.0 mg/kg,11 days
same,mortality from day,female NMRI mice [3]; dose of 2.5 mg/kg,11 days
same,mortality from day,female NMRI mice [3]; dose of 3.0 mg/kg,9 days
same,mortality from day,female NMRI mice [3]; dose of 3.5 mg/kg,7 days
same,"weight loss, % of the initial weight",female NMRI mice [3]; irrespective of the dose (2.0-3.5 mg/kg),30%
same,IC50,"MRC5 fibroblast cells [4]; Homo sapiens, MRC5",0.01 ± 0.006 µg/mL
same,mice dying,"female NMRI mice [5]; single i.v., 25 mg/kg, groups of 7, days 12 to 42",6
same,mortality begins on day,"female NMRI mice [5]; single i.v., 30 mg/kg",7 days
same,mice dead out of 7 at first mortality,"female NMRI mice [5]; single i.v., 30 mg/kg, day 7",1
same,mortality begins on day,"female NMRI mice [5]; single i.v., 35 mg/kg",6 days
same,mice dead out of 7 at first mortality,"female NMRI mice [5]; single i.v., 35 mg/kg, day 6",2
same,mortality,"female NMRI mice [5]; single i.v., 10, 15 and 20 mg/kg",no mortality
same,day of maximal mean weight loss,"female NMRI mice [5]; single i.v., 10-35 mg/kg",7 days
same,weight recovery of surviving mice,"female NMRI mice [5]; single i.v., 30 and 35 mg/kg, 30 days after injection",do not recover their initial weight
same,accumulation plateau,"MRC5 fibroblast cells [6]; 10 μg/ml, after 6 hours",~76 μg/mg of cellular proteins
same,"Intracellular concentration, Starting material","MRC5 fibroblast cells [6]; 6 hours of incubation, 10 μg eq. DNR/ml",77.4 μg/mg cellular proteins
COc1cccc2c1C(=O)c1c(O)c3c(c(O)c1C2=O)C[C@@](O)(C(C)=O)C[C@@H]3O[C@H]1C[C@H](NC(=O)[C@H](CC(C)C)NC(=O)[C@H](C)N)[C@H](O)[C@H](C)O1 [L-Ala-L-Leu-DNR],"Starting material or Metabolite, Time 0","[7]; β-Ala-Leu-Ala-Leu-DNR incubated at 37 C in MCF7/6 conditioned medium concentrated 20 of 40 times, share of each species by HPLC",0%
same,"Starting material or Metabolite, After 1 hour","[7]; β-Ala-Leu-Ala-Leu-DNR incubated at 37 C in MCF7/6 conditioned medium, share of each species by HPLC, 1 hour",<1%
same,"Starting material or Metabolite, After 2 hours","[7]; β-Ala-Leu-Ala-Leu-DNR incubated at 37 C in MCF7/6 conditioned medium, share of each species by HPLC",<1%
same,"main metabolites found, % of the total fluorescence",[8],8%
"COc1cccc2c1C(=O)c1c(O)c3c(c(O)c1C2=O)C[C@@](O)(C(C)=O)C[C@@H]3O[C@H]1C[C@H](NC(=O)[C@@H](N)CC(C)C)C(O)[C@H](C)O1 (stereo partly drawn) [L-Leu-DNR, N-L-leucyldaunorubicin]",IC50,"[1]; MCF7/6 cells, 72 hours with compound then 48 hours without",1.30 ± 0.56 µg/mL
same,times less cytotoxic than DNR,[9],14 times
same,IC50,"MRC5 fibroblast cells [4]; MRC5 cells, 72 hours with compound then 48 hours without",1.78 ± 0.23 µg/mL
same,"main metabolites found, % of the total fluorescence",[10],82%
same,times less cytotoxic than DNR,MRC5 fibroblast cells [11],172 times
same,"main metabolites found, % of the total fluorescence",[12],27%
same,"DNR found intracellularly, % of the total intracellular fluorescence",[13],14%
same,"Hydrolysis, MCF-7/6 Conditioned Medium",[14],−
same,"Starting material or Metabolite, After 1 hour",[14],83%
same,"Starting material or Metabolite, After 2 hours",[14],90%
same,"Starting material or Metabolite, Time 0",[14],0%
"COc1cccc2c1C(=O)c1c(O)c3c(c(O)c1C2=O)C[C@@](O)(C(=O)CO)C[C@@H]3O[C@H]1C[C@H](NC(=O)[C@@H](N)CC(C)C)[C@H](O)[C@H](C)O1 [L-Leu-DOX, N-L-leucyldoxorubicin]",IC50 (72 h),[1]; MCF7/6 cells,0.020 µg/mL
same,times less cytotoxic than DOX,"[1]; MCF7/6 cells, 72 hours",8 times
same,"Accumulation after 6 h, DOX","[2]; MCF7/6 cells, 10 μg eq. DOX/ml",0.25 μg/mg cellular prot.
same,"Accumulation after 6 h, Leu-DOX","[2]; MCF7/6 cells, 10 μg eq. DOX/ml",1.10 μg/mg cellular prot.
same,"accumulation, times less than DOX","[2]; MCF7/6 cells, after 6 hours",6 times
same,IC50 (72 h),MRC5 fibroblast cells [4]; MRC5 cells,0.30 µg/mL
same,times less cytotoxic than DOX,"MRC5 fibroblast cells [4]; MRC5 cells, 72 hours",17 times
same,"Starting material or Metabolite, After 2 hours",[7]; [15],68%
same,"Starting material or Metabolite, Time 0",[7]; [15],0%
same,"Accumulation after 6 h, DOX",MRC5 fibroblast cells [6],0.3 μg/mg cellular prot.
same,"Accumulation after 6 h, Leu-DOX",MRC5 fibroblast cells [6],1.4 μg/mg cellular prot.
same,"Accumulation after 6 h, DOX",MRC5 fibroblast cells [6]; listed as Leu-DOX,0.30 μg/mg cellular prot.
same,"Accumulation after 6 h, Leu-DOX",MRC5 fibroblast cells [6]; listed as Leu-DOX,1.40 μg/mg cellular prot.
